This is an account of results in ChEMBL document CHEMBL1136837, “Unified QSAR approach to antimicrobials. 4. Multi-target QSAR modeling and comparative multi-distance study of the giant components of antiviral drug-drug complex networks” (Bioorg Med Chem, 2009).

The test system of one experiment is Simplexvirus. Kind of experiment: Antiviral activity against Herpes simplex virus. Type of experiment: functional, organism-based.
For the next experiment, the system named is Picornaviridae. Kind of experiment: Antiviral activity against Human picornavirus. The format is functional, organism-based.
The test system of the next experiment is Human betaherpesvirus 5. Kind of experiment: Antiviral activity against Human cytomegalovirus. Type of experiment: functional, organism-based. To be noted: Human betaherpesvirus 5.
Another experiment has as its system Human alphaherpesvirus 1. Kind of experiment: Antiviral activity against Herpes simplex virus 1. To be noted: Human alphaherpesvirus 1. Type of experiment: functional, organism-based.
For another experiment, the system named is Human alphaherpesvirus 3. Kind of experiment: Antiviral activity against Varicella zoster virus. Type of experiment: functional, organism-based.
The next experiment deals with Human alphaherpesvirus 2. Kind of experiment: Antiviral activity against Herpes simplex virus 2. The format is functional, organism-based. Conditions: Human alphaherpesvirus 2.
Another experiment deals with Human gammaherpesvirus 8. Kind of experiment: Antiviral activity against Human herpesvirus 8. The format is functional, organism-based.
In a further experiment the test system is Human gammaherpesvirus 4. Kind of experiment: Antiviral activity against Epstein-Barr virus. The format is functional, organism-based.
Experiment [1] deals with Human immunodeficiency virus 1. Kind of experiment: Antiviral activity against HIV1. The format is functional, organism-based.
For another experiment, the system named is Hepatitis B virus. Kind of experiment: Antiviral activity against Hepatitis B virus. Type of experiment: functional, organism-based.
The subject of the next experiment is Vaccinia virus. Kind of experiment: Antiviral activity against Vaccinia virus. To be noted: Orthopoxvirus vaccinia. The format is functional, organism-based, Orthopoxvirus vaccinia.
Another experiment relates to Human adenovirus 2. Kind of experiment: Antiviral activity against Human adenovirus 2. Type of experiment: functional, organism-based. Conditions: Human mastadenovirus C.
The test system of a further experiment is Cowpox virus. Kind of experiment: Antiviral activity against Cowpox virus. Type of experiment: functional, organism-based.
For experiment [2], the system named is Moloney murine sarcoma virus. Kind of experiment: Antiviral activity against Moloney sarcoma virus. The format is functional, organism-based.
Experiment [3] deals with Human betaherpesvirus 6. Kind of experiment: Antiviral activity against Human herpesvirus 6A. Type of experiment: functional, organism-based.
For experiment [4], the system named is Human betaherpesvirus 6. Kind of experiment: Antiviral activity against Human herpesvirus 6B. Type of experiment: functional, organism-based.
Another experiment concerns Influenza A virus H3N2. Kind of experiment: Antiviral activity against influenza H3N2 virus. Type of experiment: functional, organism-based, H3N2 subtype.
The test system of the next experiment is Influenza A virus. Kind of experiment: Antiviral activity against influenza H1N1 virus. Type of experiment: functional, organism-based.

Regarding `Cc1ccc(Cn2c(N)c(C#N)c3c(N)ncnc32)cc1`, in the experiment with Simplexvirus, the IC50 (as a rule, the midpoint of a concentration-inhibition curve) is 60 µM.
On to `Nc1nc2ccc(/C(=N/Nc3ccccc3)c3ccccc3)nn2c1-c1ccc(F)cc1`, for which the IC50 in the experiment with Picornaviridae stood at 10 µM.
As for `Nc1ccn(/C=C2/CC2(CO)CO)c(=O)n1`, the IC50 is 14 µM with Human betaherpesvirus 5; 448 µM with Human alphaherpesvirus 1; 448 µM in the experiment with Human alphaherpesvirus 3; 448 µM with Human alphaherpesvirus 2; 197 µM in the experiment with Human gammaherpesvirus 8; 45 µM in the experiment with Human gammaherpesvirus 4.
Take `Nc1nc(N)c2ncn(/C=C3\CC3(CO)CO)c2n1`: the IC50 came out at 3.3 µM with Human betaherpesvirus 5; 381 µM in the experiment with Human alphaherpesvirus 1; 39 µM in the experiment with Human alphaherpesvirus 3; 381 µM in the experiment with Human alphaherpesvirus 2; 165 µM in the experiment on Human gammaherpesvirus 8.
Consider `Nc1ncnc2c1ncn2/C=C1/CC1(CO)CO`, for which the IC50 with Human betaherpesvirus 5 was 12 µM; with Human alphaherpesvirus 1 it was 404 µM; in the experiment with Human alphaherpesvirus 3, 404 µM; in the experiment with Human alphaherpesvirus 2 it was 404 µM; in the experiment on Human gammaherpesvirus 8, 57 µM; in the experiment on Human gammaherpesvirus 4 it was 166 µM.
Turning to `Nc1nc2c(ncn2/C=C2\CC2(F)CO)c(=O)[nH]1` (stereo not drawn), the IC50 came to 79.6 µM with Human alphaherpesvirus 3, 100 µM in experiment [1], 20 µM with Human gammaherpesvirus 4 and 20 µM in the experiment with Hepatitis B virus.
With `Nc1ncnc2c1ncn2C[C@@H](CO)OCP(=O)(O)O`, the IC50 with Vaccinia virus came out at 3.5 µM; with Human adenovirus 2, 0.63 µM; in the experiment on Cowpox virus, 5 µM.
For the compound `Nc1cc(OCCOCP(=O)(O)O)ncn1`, the figures for the IC50 (in experiment [2]; in the experiment with Human alphaherpesvirus 1) were 5.22 µM and 6.43 µM, respectively.
In the same order, the values of `Nc1nc(O)cc(NC2CC2)n1` are 0.000801 µM and 0.00241 µM.
Turning to `Nc1nc2c(ncn2/C=C2\CC2(CO)CO)c(=O)[nH]1`, the concentration for half-maximal inhibition (IC50) in the experiment on Human betaherpesvirus 5 turned out to be 123 µM; with Human alphaherpesvirus 1, 380 µM; in the experiment on Human betaherpesvirus 6 [3], 116 µM; in the experiment on Human alphaherpesvirus 3, 380 µM; in the experiment with Human alphaherpesvirus 2, 380 µM; with Human betaherpesvirus 6 [4], 43 µM. The IC50 in the experiment with Human gammaherpesvirus 8 was 190 µM; in the experiment with Human gammaherpesvirus 4, 119 µM.
Compound `O=C(NCc1ccc(Cl)cc1)c1cnc2ccc(CCCO)cc2c1O` displayed an IC50 with Simplexvirus of 11 µM.
Consider `Cc1cn(/C=C2/CC2(F)CO)c(=O)[nH]c1=O` (stereo not drawn), for which the IC50 with Human alphaherpesvirus 3 was found to be 0.62 µM; in [1] it was 100 µM; in the experiment on Human gammaherpesvirus 4, 51.7 µM; with Hepatitis B virus, 20 µM.
In the case of `Nc1nc2ccc(/C(=N/O)c3ccccc3)nn2c1-c1ccccc1`, the IC50 with Picornaviridae stood at 0.04 µM.
As to `Cc1cn(/C=C2\CC2(F)CO)c(=O)[nH]c1=O` (stereo not drawn), the IC50 came out at 442 µM in the experiment on Human alphaherpesvirus 3, 100 µM in experiment [1], 20 µM in the experiment on Human gammaherpesvirus 4 and 20 µM with Hepatitis B virus.
Consider `Nc1nc2ccc(/C(=N/O)c3ccccc3)nn2c1-c1ccc(F)cc1`, for which, in the experiment on Picornaviridae, 0.05 µM corresponded to half-maximal inhibition (IC50).
Regarding `CCC(CC)C(NC(C)=O)C1C(NC(=N)N)CC(C(=O)O)C1O` (stereo not drawn), the IC50 in the experiment on Influenza A virus H3N2 came out at 0.14 µM.
`CNC(=O)/C=C(\c1ccc(C)cc1)c1ccc2nc(NCC(=O)NC)c(-c3ccc(F)cc3)n2n1` had an IC50 in the experiment with Picornaviridae of 0.23 µM.
With `N#Cc1cn([C@@H]2O[C@H](CO)[C@@H](O)[C@@H]2F)c2ncnc(N)c12`, the IC50 was 0.025 µM with Human betaherpesvirus 5 and 0.47 µM in the experiment on Simplexvirus.
Regarding `O=C(NCc1ccc(Cl)cc1)c1cnc2ccc(C#CCO)cc2c1O`, the results for the IC50 in the experiment with Human alphaherpesvirus 3 and with Simplexvirus were 0.68 µM and 20 µM, respectively.
`OC[C@H]1O[C@@H](n2c(Br)nc3cc(Cl)c(Cl)cc32)[C@H](O)[C@@H]1O`: the IC50 with Human betaherpesvirus 6 [3] and in the experiment on Human betaherpesvirus 6 [4] was 125 µM throughout.
With `CNC(=O)/C=C(\c1ccccc1)c1ccc2nc(NCC(=O)NC)c(-c3ccc(F)cc3)n2n1`, in the experiment with Picornaviridae, half-maximal inhibition (IC50) was put at 0.11 µM.
For the compound `CCCCCCCCCCCCCCCCOCCCOP1(=O)CO[C@@H](CN2CCC(N)=NC2=O)CO1` (stereo partly drawn), the IC50 was determined as 0.04 µM with Human betaherpesvirus 5, 0.04 µM with Simplexvirus and 5.6 µM with Vaccinia virus.
With `CCC(CC)C(NC(C)=O)C1CC(C(=O)O)CC1NC(=N)N` (stereo not drawn), the IC50 in the experiment on Influenza A virus stood at 0.64 µM.
Regarding `CCCCCCCCCCCCCCCCCCOCCOP(=O)(O)CO[C@H](CO)Cn1ccc(N)nc1=O`, the IC50 with Simplexvirus was 0.001 µM; in the experiment with Vaccinia virus, 0.24 µM.
In the experiment with Influenza A virus, `CCCC(CCC)C(NC(C)=O)C1CC(C(=O)O)CC1NC(=N)N` (stereo not drawn) had an IC50 of 0.72 µM.
Regarding `O=C(NCc1ccc(Cl)cc1)c1cnc2c(F)cccc2c1O`, the IC50 came to 11 µM with Human betaherpesvirus 5, 1.2 µM in the experiment with Human alphaherpesvirus 3 and 13 µM with Simplexvirus.
